# Several values for one entry are separate records, joined by “and”; a condition that tells them apart may be missing. Identical values can stand only once. Like-named read-outs stand apart in the source and are kept apart here.
# Test: Brain-to-plasma ratio of Compound C after oral gavage or intranasal administration (Example 5)
# Assay type: in vivo, Sprague-Dawley rats
# Details: for concentration at 10 min / concentration at 30 min / concentration at 60 min / Kp at […] / Kp at 0.5 h / Kp at 1 h: Sprague-Dawley
# Experimental: Three treatment groups of nine rats each were used (see Study Design, Table 9). […] The animals were housed up to three per cage and identified by cage labels. A single room was used for this study. […] Food was withheld from the animals for a minimum of 12 hours before the study and during the study, and was returned at 4 hours post-dose. Water was supplied ad libitum during the study.
# All dosing solutions were prepared in isotonic PBS (phosphate buffered saline) buffer at pH 7.4. […] For intranasal dosing, the animals were anesthetized with CO2 prior to dosing, and the solution was administered in a 25 μL droplet from a pipette.
# For each treatment group, brain and plasma samples were collected at 10, 30 and 60 minutes post-dose. Blood samples were placed in heparinized tubles and spun at 13,000 rpm for 5 minutes. The plasma was placed in polyethylene tubes and frozen (−60 to −80° C.). Brain samples were also placed in chilled tubes and frozen (−60 to −80° C.). Samples remained chilled during subsequent processing.
# Brain samples were thawed and weighed. […] After homogenation, the volume of each sample was recorded and the samples were frozen at −80° C. until analysis.
# Plastic tubes were used for all steps. Standards were prepared at concentrations of 1000, 500, 250, 100, 50, 10, 5, and 1 ng/mL by serial dilution. Quality control samples were also prepared at 500, 100, and 5 ng/mL. […] Brain standards and quality control samples were treated identically to the test compound samples.
# (§1) Brain samples (200 μL) were loaded onto a 96 well plate and then transferred to 400 μL of acetonitrile containing internal standard (100 ng/mL Pindolol) in a Sirocco Protein Precipitation Plate (Waters Corporation). The resulting suspensions were mixed, then filtered into a clean 96-well collection plate using a vacuum and transferred (100 μL) to plastic HPLC vials for analysis.
# as §1, with “(50” for “(200”, “150” for “400”
# [1] = 1 mg/kg intranasal dose, 10 min
# [2] = 1 mg/kg intranasal dose, 30 min
# [3] = 1 mg/kg intranasal dose, 60 min
# [4] = 5 mg/kg intranasal dose, 10 min
# [5] = 5 mg/kg intranasal dose, 60 min
smiles,measurement,setting,value
"CN[C@@H](C)C/C=C/c1cncc(OC(C)C)c1 [Compound C, (2S)-(4E)-N-methyl-5-(3-(5-isopropoxypyridin)yl)-4-penten-2-amine]",Brain-to-Plasma Ratio,[1],1.55 and 1.68
same,Mean Ratio (brain-to-plasma),[1],1.97
same,Brain-to-Plasma Ratio,[2],1.69 and 2.36
same,Mean Ratio (brain-to-plasma),[2],2.27
same,Plasma Conc.,[2],118 ng/mL and 86.8 ng/mL
same,Brain-to-Plasma Ratio,[3],1.86 and 2.57
same,Mean Ratio (brain-to-plasma),[3],2.12
same,Plasma Conc.,[3],66 ng/mL and 37.8 ng/mL
same,Brain-to-Plasma Ratio,[4],0.99
same,Plasma Conc.,[4],1570 ng/mL and 1700 ng/mL
same,Brain-to-Plasma Ratio,"5 mg/kg intranasal dose, 30 min",3.58 and 2.11
same,Brain-to-Plasma Ratio,[5],3.26 and 1.95
same,Mean Ratio (brain-to-plasma),[5],2.41
same,Plasma Conc.,[5],175 ng/mL and 119 ng/mL
same,Brain-to-Plasma Ratio,"5 mg/kg oral dose, 30 min",2.65 and 1.67
same,Mean Ratio (brain-to-plasma),"5 mg/kg oral dose, 30 min",2.21
same,Brain-to-Plasma Ratio,"5 mg/kg oral dose, 60 min",3.95
same,Mean Ratio (brain-to-plasma),"5 mg/kg oral dose, 60 min",3.55
same,"5 mg/kg IN/5 mg/kg PO, Brain",30 min,1.0
same,"5 mg/kg IN/5 mg/kg PO, Plasma",30 min,0.7
same,"5 mg/kg IN/5 mg/kg PO, Brain",60 min,0.7
same,"5 mg/kg IN/5 mg/kg PO, Plasma",60 min,1.0
same,concentration at 10 min,"rat, brain homogenate, oral, 5 mg/kg, 5 mg/kg oral dose, 10 min, read-out: Brain Conc.",45.4 ng/mL
same,concentration at 30 min,"rat, brain homogenate, oral, 5 mg/kg, 5 mg/kg oral dose, 30 min, read-out: Brain Conc.",205 ng/mL
same,concentration at 10 min,"rat, brain homogenate, other: intranasal, 1 mg/kg, 1 mg/kg intranasal dose, 10 min, read-out: Brain Conc.",47.6 ng/mL
same,concentration at 30 min,"rat, brain homogenate, other: intranasal, 1 mg/kg, 1 mg/kg intranasal dose, 30 min, read-out: Brain Conc.",43.7 ng/mL
same,concentration at 60 min,"rat, brain homogenate, other: intranasal, 1 mg/kg, 1 mg/kg intranasal dose, 60 min, read-out: Brain Conc.",17.7 ng/mL
same,concentration at 10 min,"rat, brain homogenate, other: intranasal, 5 mg/kg, 5 mg/kg intranasal dose, 10 min, read-out: Brain Conc.",269 ng/mL
same,Kp at […],"rat, brain, inhaled or intranasal, 1 mg/kg, 1 mg/kg intranasal dose, 10 min, read-out: Mean Ratio (brain-to-plasma)",2
same,Kp at 0.5 h,"rat, brain, inhaled or intranasal, 1 mg/kg, 1 mg/kg intranasal dose, 30 min, read-out: Mean Ratio (brain-to-plasma)",2.8
same,Kp at 1 h,"rat, brain, inhaled or intranasal, 1 mg/kg, 1 mg/kg intranasal dose, 60 min, read-out: Mean Ratio (brain-to-plasma)",2.4
same,Kp at […],"rat, brain, inhaled or intranasal, 5 mg/kg, 5 mg/kg intranasal dose, 10 min, read-out: Mean Ratio (brain-to-plasma)",1.2
same,Kp at 0.5 h,"rat, brain, inhaled or intranasal, 5 mg/kg, 5 mg/kg intranasal dose, 30 min, read-out: Mean Ratio (brain-to-plasma)",2.8
same,Kp at 1 h,"rat, brain, inhaled or intranasal, 5 mg/kg, 5 mg/kg intranasal dose, 60 min, read-out: Mean Ratio (brain-to-plasma)",2.4
same,concentration at 10 min,"rat, brain, oral, 5 mg/kg, 5 mg/kg oral dose, 10 min, read-out: Brain Conc.",227 ng/g
same,concentration at 30 min,"rat, brain, oral, 5 mg/kg, 5 mg/kg oral dose, 30 min, read-out: Brain Conc.",1020 ng/g
same,concentration at 10 min,"rat, brain, other: intranasal, 1 mg/kg, 1 mg/kg intranasal dose, 10 min, read-out: Brain Conc.",238 ng/g
same,concentration at 30 min,"rat, brain, other: intranasal, 1 mg/kg, 1 mg/kg intranasal dose, 30 min, read-out: Brain Conc.",219 ng/g
same,concentration at 60 min,"rat, brain, other: intranasal, 1 mg/kg, 1 mg/kg intranasal dose, 60 min, read-out: Brain Conc.",89 ng/g
same,concentration at 10 min,"rat, brain, other: intranasal, 1 mg/kg, intranasal 1 mg/kg, 10 minutes, read-out: Average brain levels",136 ng/g
same,concentration at 30 min,"rat, brain, other: intranasal, 1 mg/kg, intranasal 1 mg/kg, 30 minutes, read-out: Average brain levels",95 ng/g
same,concentration at 60 min,"rat, brain, other: intranasal, 1 mg/kg, intranasal 1 mg/kg, 60 minutes, read-out: Average brain levels",50 ng/g
same,concentration at 10 min,"rat, brain, other: intranasal, 5 mg/kg, 5 mg/kg intranasal dose, 10 min, read-out: Brain Conc.",1340 ng/g
same,concentration at 10 min,"rat, brain, other: intranasal, 5 mg/kg, intranasal 5 mg/kg, 10 minutes, read-out: Average brain levels",1750 ng/g
same,concentration at 30 min,"rat, brain, other: intranasal, 5 mg/kg, intranasal 5 mg/kg, 30 minutes, read-out: Average brain levels",1160 ng/g
same,concentration at 60 min,"rat, brain, other: intranasal, 5 mg/kg, intranasal 5 mg/kg, 60 minutes, read-out: Average brain levels",382 ng/g
same,concentration at 10 min,"rat, brain, po, 5 mg/kg, oral gavage 5 mg/kg, 10 minutes, read-out: Average brain levels",225 ng/g
same,concentration at 30 min,"rat, brain, po, 5 mg/kg, oral gavage 5 mg/kg, 30 minutes, read-out: Average brain levels",1170 ng/g
same,concentration at 60 min,"rat, brain, po, 5 mg/kg, oral gavage 5 mg/kg, 60 minutes, read-out: Average brain levels",571 ng/g
same,Kp at […],"rat, brain/plasma, inhaled or intranasal, 1 mg/kg, 1 mg/kg intranasal dose, 10 min, read-out: Brain-to-Plasma Ratio",2.7
same,Kp at 0.5 h,"rat, brain/plasma, inhaled or intranasal, 1 mg/kg, 1 mg/kg intranasal dose, 30 min, read-out: Brain-to-Plasma Ratio",2.78
same,Kp at 1 h,"rat, brain/plasma, inhaled or intranasal, 1 mg/kg, 1 mg/kg intranasal dose, 60 min, read-out: Brain-to-Plasma Ratio",1.92
same,Kp at […],"rat, brain/plasma, inhaled or intranasal, 5 mg/kg, 5 mg/kg intranasal dose, 10 min, read-out: Brain-to-Plasma Ratio",1.42
same,Kp at 0.5 h,"rat, brain/plasma, inhaled or intranasal, 5 mg/kg, 5 mg/kg intranasal dose, 30 min, read-out: Brain-to-Plasma Ratio",2.63
same,Kp at 1 h,"rat, brain/plasma, inhaled or intranasal, 5 mg/kg, 5 mg/kg intranasal dose, 60 min, read-out: Brain-to-Plasma Ratio",2.03
same,Kp at […],"rat, brain/plasma, po, 5 mg/kg, 5 mg/kg oral dose, 10 min, read-out: Mean Ratio (brain-to-plasma)",0.8
same,Kp at 0.5 h,"rat, brain/plasma, po, 5 mg/kg, 5 mg/kg oral dose, 30 min, read-out: Brain-to-Plasma Ratio",2.31
same,Kp at 0.5 h,"rat, brain/plasma, po, 5 mg/kg, 5 mg/kg oral dose, 30 min, read-out: Mean Ratio (brain-to-plasma)",2.2
same,Kp at 1 h,"rat, brain/plasma, po, 5 mg/kg, 5 mg/kg oral dose, 60 min, read-out: Brain-to-Plasma Ratio",3.89
same,Kp at 1 h,"rat, brain/plasma, po, 5 mg/kg, 5 mg/kg oral dose, 60 min, read-out: Mean Ratio (brain-to-plasma)",3.5
same,Kp at […],"rat, brain/plasma, po, 5 mg/kg, 10 min, read-out: 5 mg/kg IN/5 mg/kg PO, Ratio (brain to plasma)",1.5
same,Kp at 0.5 h,"rat, brain/plasma, po, 5 mg/kg, 30 min, read-out: 5 mg/kg IN/5 mg/kg PO, Ratio (brain to plasma)",1.3
same,Kp at 1 h,"rat, brain/plasma, po, 5 mg/kg, 60 min, read-out: 5 mg/kg IN/5 mg/kg PO, Ratio (brain to plasma)",0.7
same,concentration at 30 min,"rat, plasma, other: intranasal, 1 mg/kg, 1 mg/kg intranasal dose, 30 min, read-out: Plasma Conc.",78.7 ng/mL
same,concentration at 60 min,"rat, plasma, other: intranasal, 1 mg/kg, 1 mg/kg intranasal dose, 60 min, read-out: Plasma Conc.",46 ng/mL
same,concentration at 10 min,"rat, plasma, other: intranasal, 1 mg/kg, intranasal 1 mg/kg, 10 minutes, read-out: Average plasma levels",250 ng/mL
same,concentration at 30 min,"rat, plasma, other: intranasal, 1 mg/kg, intranasal 1 mg/kg, 30 minutes, read-out: Average plasma levels",208 ng/mL
same,concentration at 60 min,"rat, plasma, other: intranasal, 1 mg/kg, intranasal 1 mg/kg, 60 minutes, read-out: Average plasma levels",103 ng/mL
same,concentration at 10 min,"rat, plasma, other: intranasal, 5 mg/kg, 5 mg/kg intranasal dose, 10 min, read-out: Plasma Conc.",1120 ng/mL
same,concentration at 60 min,"rat, plasma, other: intranasal, 5 mg/kg, 5 mg/kg intranasal dose, 60 min, read-out: Plasma Conc.",170 ng/mL
same,concentration at 10 min,"rat, plasma, other: intranasal, 5 mg/kg, intranasal 5 mg/kg, 10 minutes, read-out: Average plasma levels",1460 ng/mL
same,concentration at 30 min,"rat, plasma, other: intranasal, 5 mg/kg, intranasal 5 mg/kg, 30 minutes, read-out: Average plasma levels",421 ng/mL
same,concentration at 60 min,"rat, plasma, other: intranasal, 5 mg/kg, intranasal 5 mg/kg, 60 minutes, read-out: Average plasma levels",155 ng/mL
same,concentration at 10 min,"rat, plasma, po, 5 mg/kg, oral gavage 5 mg/kg, 10 minutes, read-out: Average plasma levels",312 ng/mL
same,concentration at 30 min,"rat, plasma, po, 5 mg/kg, oral gavage 5 mg/kg, 30 minutes, read-out: Average plasma levels",578 ng/mL
same,concentration at 60 min,"rat, plasma, po, 5 mg/kg, oral gavage 5 mg/kg, 60 minutes, read-out: Average plasma levels",155 ng/mL
same,Intranasal absorption into the brain and bloodstream compared with oral administration,"rat, in vivo, po",much faster

# From patent publication US20100028447A1, “Intranasal, Buccal, And Sublingual Administration Of Metanicotine Analogs” (TARGACEPT, INC., priority 2007, published 2010)
